Source: patent US20060093597A1, “Methods of treating involuntary facial spasms and facial wrinkles” (priority 2002, published 2006)
Read-outs that look alike come from different tables or passages of the source.

Columns and labels:
Botox-induced symptoms = format: in vivo, mouse; details: for reading of Botox-induced muscle weakness after topical DAP: n=7
neuromuscular blockade = details: effective-dose comparison with PMB; cited from earlier work
various bacteria = details: cited from earlier work
mice = details: effective-dose comparison with PMB; cited from earlier work
rat mast cells = details: cited from earlier work
eukaryotic cytotoxicity = details: cited from earlier work
[1] = in vivo; cited from earlier work

Nc1ccncc1N [DAP, 3,4-diaminopyridine]
reading of Botox-induced muscle weakness after topical DAP (Botox-induced symptoms; at 1 hour): 1.5 | reading of Botox-induced muscle weakness after topical DAP (Botox-induced symptoms; at 4 hour): 0.75 | reading later in the experiment (Botox-induced symptoms; mouse, in vivo): the reading went up | response to topical administration (Botox-induced symptoms; mouse, in vivo): rapid response

Polymyxin B nonapeptide [PMBN]
fold less active than PMB in causing neuromuscular blockade (neuromuscular blockade): 150 times | MIC compared to parent molecule PMB (various bacteria): increased up to thousand folds | fold less toxic than PMB, acute toxicity (mice): 15 times | fold less active than PMB in releasing histamine (rat mast cells): 25 time | fold less toxic than PMB, cytotoxicity (eukaryotic cytotoxicity): 100 times | half-life [1]: approximately 25 minutes
